We go through 18 molecules from patent US20170050980A1, “OXADIAZINE COMPOUNDS AND METHODS OF USE THEREOF” (FORUM Pharmaceuticals Inc., priority 2015, published 2017).

A word on the IC50: it is the point on the concentration scale where inhibition reaches its midpoint.

For this test, the system named is Aβ42. The test can be described thus: In vitro cell screening assay; quantification of Aβ (1-42) peptide by sandwich ELISA. Format: cell-based. The note with it: Human neuroglioma H4 cells stably expressing human wild type APP751; compounds 0.003-10 μM, incubated overnight (16-18 h); Aβ42 in supernatant by sandwich ELISA; normalized to DMSO and DAPT; read-out: Aβ42 H4 Prot Fre IC50. The method, then:
Human neuroglioma H4 cells were transfected with a pcDNA3.1 plasmid expressing human wild type APP751 cDNA and a stable cell line was generated using G418 selection. Cells were plated at 15,000 cells/well in Costar 96-well plates and placed at 37° C. and 5% CO2. Six hours after plating, cells were washed three times with Pro293™ chemically defined medium, followed by addition of compounds (0.003-10 μM, final DMSO concentration of 0.33%). Plates were incubated overnight (16-18 h) and supernatant was removed for quantification of Aβ peptides by sandwich ELISA. Cytotoxicity was evaluated using Cell-Titer 96W AQueous One Solution Cell Proliferation Assay according to the manufacturer's protocol.
Aβ peptide levels were quantified by sandwich ELISA. 96-well plates were coated with C-terminal specific Aβ antibodies recognizing either Aβ37, Aβ38, Aβ40, Aβ42, Aβ43 or a N-terminal specific Aβ antibody to detect Aβ 1-x. Plates were then blocked overnight at 4° C. with 1% bovine serum albumin (BSA) in PBS-T. Plates were washed and 100 μl of cultured cell supernatant or synthetic Aβ peptide standards and a detection antibody (4G8-HRP) were applied to the blocked plate and incubated overnight at 4° C. The next day, wells were washed before the addition of detection substrate (TMB peroxidase). Plates were then read for absorbance at 450 nm on a Molecular Devices SpectraMax M5e Microplate Reader.
Compound-treated samples were normalized to samples treated with DMSO alone (no inhibition) and to samples treated with DAPT. IC50 values were calculated from values reported as percent of DMSO controls using nonlinear regression, based on a sigmoidal dose—response (variable slope) model. […] used for calculation.
For `COc1nc(C2=NOC(C)C(c3cn(C)c4cc(F)c(Cl)cc34)N2)ccc1-n1cnc(C)c1` (single isomer, unassigned; (+)) [Example 21B, (+)-5-(5-chloro-6-fluoro-1-methyl-1H-indol-3-yl)-3-(6-methoxy-5-(4-methyl-1H-imidazol-1-yl)pyridin-2-yl)-6-methyl-5,6-dihydro-4H-1,2,4-oxadiazine], the IC50 is 3 nM. Under `COc1nc(C2=NOC(C)C(c3cn(C)c4ncc(C(F)(F)F)cc34)N2)ccc1-n1cnc(C)c1` (single isomer, unassigned; (-)) [44A or 45A, (−)-3-(6-methoxy-5-(4-methyl-1H-imidazol-1-yl)pyridin-2-yl)-6-methyl-5-(1-methyl-5-(trifluoromethyl)-1H-pyrrolo[2,3-b]pyridin-3-yl)-5,6-dihydro-4H-1,2,4-oxadiazine] stands 173 nM; under `COc1nc(C2=NOC(C)C(c3cn(C)c4ncc(Cl)cc34)N2)ccc1-n1cnc(C)c1` (single isomer, unassigned; (+)) [Example 54D, (+)-5-(5-chloro-1-methyl-1H-pyrrolo [2,3-b]pyridin-3-yl)-3-(6-methoxy-5-(4-methyl-1H-imidazol-1-yl)pyridin-2-yl)-6-methyl-5,6-dihydro-4H-1,2,4-oxadiazine], 5.1 nM. Regarding `COc1nc(C2=NOC(C)C(c3c4n(c5ccc(Cl)cc35)CCOC4)N2)ccc1-n1cnc(C)c1` (single isomer, unassigned; (-)) [Example 50C, (−)-8-chloro-10-(3-(6-methoxy-5-(4-methyl-1H-imidazol-1-yl)pyridin-2-yl)-6-methyl-5,6-dihydro-4H-1,2,4-oxadiazin-5-yl)-3,4-dihydro-1H-[1,4] oxazino [4,3-a] indole], the concentration for half-maximal inhibition (IC50) came out at 352 nM. With `COc1nc(C2=NOC(C)C(c3ccc(Cl)cc3)N2)ccc1-c1ccnc(C)c1` (single isomer, unassigned; (+)) [Example 48B, (+)-5-(4-chlorophenyl)-3-(2-methoxy-2′-methyl-[3,4′-bipyridin]-6-yl)-6-methyl-5,6-dihydro-4H-1,2,4-oxadiazine] the figure was 18.2 nM; with `COc1nc(C2=NOC(C)C(c3ccc(Cl)cc3)N2)ccc1-c1ccnc(C)c1` (single isomer, unassigned; (-)) [Example 48A, (−)-5-(4-chlorophenyl)-3-(2-methoxy-2′-methyl-[3,4′-bipyridin]-6-yl)-6-methyl-5,6-dihydro-4H-1,2,4-oxadiazine], 438 nM.

For `COc1nc(C2=NOC(C)C(c3ccc(Cl)c(Cl)c3)N2)ccc1-n1cnc(C)c1` (stereo not drawn) [Example 19B, (+)-cis-5-(3,4-dichlorophenyl)-3-[6-methoxy-5-(4-methyl-1H-imidazol-1-yl)pyridin-2-yl]-6-methyl-5,6-dihydro-4H-1,2,4-oxadiazine], the IC50 came out at 6 nM. With `COc1cc(C2=NOC(C)C(c3ccc(Cl)cc3)N2)ccc1-n1cnc(C)c1` (single isomer, unassigned; (+)) [Example 43B, (+)-5-(4-chlorophenyl)-3-(3-methoxy-4-(4-methyl-1H-imidazol-1-yl)phenyl)-6-methyl-5,6-dihydro-4H-1,2,4-oxadiazine] the figure was 80.5 nM; with `COc1nc(C2=NOC(C)C(c3cccc(Cl)c3)N2)ccc1-c1ccnc(C)c1` (single isomer, unassigned; (-)) [Example 49A, (−)-5-(3-chlorophenyl)-3-(2-methoxy-2′-methyl-[3,4′-bipyridin]-6-yl)-6-methyl-5,6-dihydro-4H-1,2,4-oxadiazine], 548 nM. Under `COc1nc(C2=NOCC3CN(c4ccc(Cl)cc4C(F)(F)F)CCN23)ccc1-n1cnc(C)c1` (single isomer, unassigned) [Example 36B, 8-(4-chloro-2-(trifluoromethyl)phenyl)-4-(6-methoxy-5-(4-methyl-1H-imidazol-1-yl)pyridin-2-yl)-1,6,7,8,9,9a-hexahydropyrazino [1,2-d] [1,2,4] oxadiazine] stands 307 nM; under `COc1nc(C2=NOCC(c3c4n(c5ccccc35)CCOC4)N2)ccc1-n1cnc(C)c1` (single isomer, unassigned; (-)) [Example 30A, (−)-10-(3-(6-methoxy-5-(4-methyl-1H-imidazol-1-yl)pyridin-2-yl)-5,6-dihydro-4H-1,2,4-oxadiazin-5-yl)-3 ,4-dihydro-1H-[1,4]oxazino[4,3-a]indole], 323 nM. As for `COc1nc(C2=NOC(C3CC3)C(c3cc(F)cc(F)c3)N2)ccc1-n1cnc(C)c1` (single isomer, unassigned; (+)) [Example 59A, (+)-6-cyclopropyl-5-(3,5-difluorophenyl)-3-(6-methoxy-5-(4-methyl-1H-imidazol-1-yl)pyridin-2-yl)-5,6-dihydro-4H-1,2,4-oxadiazine], the half-maximal inhibitory concentration (IC50) stood at 20.7 nM.

For `COc1nc(C2=NOC(C)C(c3cn(C)c4ncc(F)c(F)c34)N2)ccc1-n1cnc(C)c1` (single isomer, unassigned; (+)) [Example 51D, (+)-5-(4,5-difluoro-1-methyl-1H-pyrrolo [2,3-b]pyridin-3-yl)-3-(6-methoxy-5-(4-methyl-1H-imidazol-1-yl)pyridin-2-yl)-6-methyl-5,6-dihydro-4H-1,2,4-oxadiazine], the IC50 was 68.9 nM. With `COc1nc(C2=NOC(C)C(c3cn(C)c4ccc(F)c(F)c34)N2)ccc1-n1cnc(C)c1` (single isomer, unassigned; (-)) [Example 52A, (−)-5-(4,5-difluoro-1-methyl-1H-indol-3-yl)-3-(6-methoxy-5-(4-methyl-1H-imidazol-1-yl)pyridin-2-yl)-6-methyl-5,6-dihydro-4H-1,2,4-oxadiazine] the figure was 84 nM; with `COc1nc(C2=NOC(C)C(c3cn(C)c4ncc(C5CC5)cc34)N2)ccc1-n1cnc(C)c1` (single isomer, unassigned; (+)) [Example 56D, (+)-5-(5-cyclopropyl-1-methyl-1H-pyrrolo [2,3-b]pyridin-3-yl)-3-(6-methoxy-5-(4-methyl-1H-imidazol-1-yl)pyridin-2-yl)-6-methyl-5,6-dihydro-4H-1,2,4-oxadiazine], 12.5 nM. With `COc1nc(C2=NOC(C)C(c3cccc(Cl)c3)N2)ccc1-n1cnc(C)c1` (single isomer, unassigned) [Example 41A, 5-(3-chlorophenyl)-3-(6-methoxy-5-(4-methyl-1H-imidazol-1-yl)pyridin-2-yl)-6-methyl-5,6-dihydro-4H-1,2,4-oxadiazine] the figure was 1430 nM; with `COc1nc(C2=NOC3(CC3)C(c3ccc(Cl)cc3)N2)ccc1-n1cnc(C)c1` (single isomer, unassigned; (+)) [Example 25B, (+)-8-(4-chlorophenyl)-6-[6-methoxy-5-(4-methyl-1H-imidazol-1-yl)pyridin-2-yl]-4-oxa-5,7-diazaspiro[2.5]oct-5-ene], 26 nM. Under `COc1nc(C2=NOC(C)C(c3cn(C)c4ncc(F)c(F)c34)N2)ccc1-n1cnc(C)c1` (single isomer, unassigned; (-)) [Example 51B, (−)-5-(4,5-difluoro-1-methyl-1H-pyrrolo [2,3-b]pyridin-3-yl)-3-(6-methoxy-5-(4-methyl-1H-imidazol-1-yl)pyridin-2-yl)-6-methyl-5,6-dihydro-4H-1,2,4-oxadiazine] stands 218 nM.
